Laboratory results reported in article PMC9287337 (Scientific Reports, 2022).

What was measured:
[1] = test system: type I BMP receptor-dependent p-Smad; experiment: Western blot of p-Smad in presence or absence of Dorsomorphin; type: cell-based, mouse; settings: 10 µM inhibitor, compounds 1 µM, 30 min
Procedure: Total whole cell lysates were prepared and used for Western blot analysis of Smad phosphorylation using anti-p-Smad antibodies.
C2C12 cells (3 mL) were seeded into 35 mm dishes at 7.5 × 10^4 cells/mL in complete growth medium, incubated to reach 80% confluence and serum-starved for 16–18 h. […] Thereafter, the cultures were washed with ice-cold 1X TBS for 2 min. Lysis Buffer (Cell Signaling Technology, Danvers, MA, USA) supplemented with 1 mM PMSF (phenylmethylsulphonyl fluoride) was added to the cultures and whole cell lysates were prepared.
Laemmli sample buffer (4X) was added to the whole cell lysates (20 µg) to a final concentration of 1X and heated at 100 °C for 5 min. The samples were immediately cooled on ice for 5 min and centrifuged at 9500 rpm for 2 min at RT. The samples and the Precision Plus Protein Standard (5 µL; Bio-Rad, Hercules, CA, USA) were loaded on 12% SDS polyacrylamide gels. Protein was separated using the Bio-Rad Mini Protean II Gel Electrophoresis System at 135 V. Meanwhile, 0.2 µm nitrocellulose membranes were pre-incubated in cold 1X Transfer Buffer (10 mM Tris/2.5 mM glycine/20% methanol) for at least 30 min. Next, the separated proteins were transferred at 100 V onto the pre-equilibrated nitrocellulose membranes for 1 h in Transfer Buffer, followed by blocking in 5% BSA/0.1% Tween 20/1X TBS for 30 min. The membranes were incubated overnight at 4 °C with the desired primary rabbit monoclonal antibody (p-Smad1/5(S463/465)/9(S465/467), Smad1 (D5907) XP®, p-Akt (Ser473) (D9E) XP®, or Akt (pan) (C67E7), p-SAPK/JNK (Thr183/Tyr185), SAPK/JNK, β-actin (Cell Signaling Technologies, Danvers, MA, USA)) or rabbit polyclonal antibody (phospho-PI3 Kinase p85 (Tyr458)/p55 (Tyr199) antibody (Cell Signaling Technologies, Danvers, MA, USA), p-p38 MAPK, p38 MAPK, p-ERK1, ERK1/2) (Abclonal, Woburn, MA, USA)) in Antibody Dilution Buffer (1% BSA/0.1% Tween 20/1X TBS) and then washed with 1X TBST (0.1% Tween 20/1X TBS) three times for 15 min. HRP-conjugated Goat Anti-Rabbit IgG secondary antibody (Santa Cruz Biotechnology, Inc., Dallas, TX, USA) in Antibody Dilution Buffer was added to the membranes for 1 h at RT followed by three 15-min washes with 1X TBST. Finally, the blots were developed using SuperSignal ™ West Femto HRP Substrate solutions (Thermo Scientific, Rockford, IL, USA) and analysed using the Omega Lum™ G Imaging System (San Francisco, CA, USA). Quantification of chemiluminescent signals was carried out using ImageJ (Image Processing and Analysis in Java 1.8.0_112).

[2] = test system: C2C12 cells; experiment: Cell viability assay in presence or absence of Dorsomorphin; type: cell-based, mouse; settings: 10 µM inhibitor, 24 h
Procedure: To resolve whether the SY-LB-35 or SY-LB-57 compound requires type I BMP receptor activity for the induction of cell viability in C2C12 cells, cell viability assays were carried out in the presence or absence of 10 µM DM.
C2C12 cells (100 µL) were seeded in a 96-well plate at 5 × 10^5 cells/mL and incubated overnight in complete growth media to achieve 80% confluency followed by serum-starvation for 16–18 h. […] For BMP receptor inhibition, cell viability assays were carried out in presence or absence of Dorsomorphin (DM; 10 µM; Sigma Aldrich, St. Louis, MO, USA), a non-selective inhibitor of type I BMP receptor activity.
(§1) Next, reagents from the RealTime-Glo™ MT Cell Viability Assay Kit (Promega, Madison, WI, USA) were diluted in SS medium and used according to manufacturer’s protocol. Cellular luminescence was measured using the FilterMax F5 Multi-mode Microplate Reader (Molecular Devices, San Jose, CA, USA). Data from three independent experiments with individual experiments carried out in triplicate was determined and reported as a percentage of control.

[3] = test system: p-Smad; design: method as in PMID 30602563; settings: 30-min stimulation assays; cited from earlier work
[4] = test system: C2C12 cells; experiment: RealTime-Glo MT cell viability assay; type: cell-based, mouse; settings: C2C12, 24 h, Supplemental Fig. S3
Procedure: To first determine how these novel compounds effect the health of C2C12 cells and to establish the range of subtoxic concentrations for future studies, cell viability assays were carried out. Serum-starved C2C12 cells were exposed to increasing concentrations (0.01–1000 µM) of SY-LB-35 and SY-LB-57 for 24 h. Exposure to Triton X-100 (125 µM) is toxic to cells and was used as a negative control for cell viability. Following the 24-h exposure period, the MT Cell viability substrate was added to the cultures. Only viable cells can reduce the substrate and, thereby, generate a luminescent signal. Any decrease in luminescence was considered an indication of cell death or toxicity.
C2C12 cells (100 µL) were seeded in a 96-well plate at 5 × 10^5 cells/mL and incubated overnight in complete growth media to achieve 80% confluency followed by serum-starvation for 16–18 h.
as §1

Molecule | Increase in p-Smad levels over control [3] | Effect on cell viability [4] | further results
c1cc(-c2cnn3cc(-c4ccc(OCCN5CCCCC5)cc4)cnc23)ccn1 [DM, Dorsomorphin, reference compound] | – | – | Effect of inhibitor on p-Smad increase induced by SY-LB-35 and SY-LB-57 [1]: completely prevented the increase in p-Smad levels; Effect of inhibitor on cell viability increases stimulated by SY-LB-35 and SY-LB-57 [2]: complete inhibition of the cell viability increases
Brc1ccc(CSc2nc3ccccc3o2)cc1 [sb4, reference compound] | twofold | – | –
BMP9: recombinant BMP family member | – | Increases in cell viability | –
BMP4: BMP ligand used as comparator in the literature study (protein, UniProt P12644 293-408, looked up) Bone morphogenetic protein 4: SPKHHSQRARKKNKNCRRHSLYVDFSDVGWNDWIVAPPGYQAFYCHGDCPFPLADHLNSTNHAIVQTLVNSVNSSIPKACCVPTELSAISMLYLDEYDKVVLKNYQEMVVEGCGCR | 11 fold | – | –
BMP6: recombinant BMP family member (protein, UniProt P22004 375-513, looked up) Bone morphogenetic protein 6: SASSRRRQQSRNRSTQSQDVARVSSASDYNSSELKTACRKHELYVSFQDLGWQDWIIAPKGYAANYCDGECSFPLNAHMNATNHAIVQTLVHLMNPEYVPKPCCAPTKLNAISVLYFDDNSNVILKKYRNMVVRACGCH | – | Increases in cell viability | –
BMP7: recombinant BMP family member (protein, UniProt P18075 293-431, looked up) Bone morphogenetic protein 7: STGSKQRSQNRSKTPKNQEALRMANVAENSSSDQRQACKKHELYVSFRDLGWQDWIIAPEGYAAYYCEGECAFPLNSYMNATNHAIVQTLVHFINPETVPKPCCAPTQLNAISVLYFDDSSNVILKKYRNMVVRACGCH | – | Increases in cell viability | –
